Measured values reported in PubChem BioAssay (NCI).
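Cultured in 96-well plates, cells were exposed to test compound for 48 hours across five concentrations. TGI denotes the concentration required for complete inhibition of growth.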

Assays:
Assay in all cases: NCI tumour cell line growth inhibition, 48 h
A498 renal = test system: A498 renal
A549 NSCLC = test system: A549 NSCLC
CAKI-1 renal = test system: CAKI-1 renal
CCRF-CEM leukemia = test system: CCRF-CEM leukemia
COLO 205 colon = test system: COLO 205 colon
DLD-1 colon = test system: DLD-1 colon
DMS 273 small cell lung = test system: DMS 273 small cell lung
EKVX NSCLC = test system: EKVX NSCLC
HCC-2998 colon = test system: HCC-2998 colon
HCT-116 colon = test system: HCT-116 colon
HCT-15 colon = test system: HCT-15 colon
HL-60(TB) leukemia = test system: HL-60(TB) leukemia
HOP-18 NSCLC = test system: HOP-18 NSCLC
HOP-62 NSCLC = test system: HOP-62 NSCLC
HOP-92 NSCLC = test system: HOP-92 NSCLC
HT29 colon = test system: HT29 colon
IGROV1 ovarian = test system: IGROV1 ovarian
K-562 leukemia = test system: K-562 leukemia
KM12 colon = test system: KM12 colon
KM20L2 colon = test system: KM20L2 colon
LOX IMVI melanoma = test system: LOX IMVI melanoma
M19-MEL melanoma = test system: M19-MEL melanoma
MALME-3M melanoma = test system: MALME-3M melanoma
MCF7 breast = test system: MCF7 breast
MOLT-4 leukemia = test system: MOLT-4 leukemia
NCI-H226 lung = test system: NCI-H226 lung
NCI-H23 lung = test system: NCI-H23 lung
NCI-H460 lung = test system: NCI-H460 lung
NCI-H522 lung = test system: NCI-H522 lung
NCI/ADR-RES ovarian = test system: NCI/ADR-RES ovarian
OVCAR-3 ovarian = test system: OVCAR-3 ovarian
OVCAR-4 ovarian = test system: OVCAR-4 ovarian
OVCAR-5 ovarian = test system: OVCAR-5 ovarian
OVCAR-8 ovarian = test system: OVCAR-8 ovarian
P388 leukemia = test system: P388 leukemia
P388/ADR leukemia = test system: P388/ADR leukemia
RPMI-8226 leukemia = test system: RPMI-8226 leukemia
RXF 393 renal = test system: RXF 393 renal
SF-268 CNS = test system: SF-268 CNS
SF-295 CNS = test system: SF-295 CNS
SF-539 CNS = test system: SF-539 CNS
SK-MEL-2 melanoma = test system: SK-MEL-2 melanoma
SK-MEL-28 melanoma = test system: SK-MEL-28 melanoma
SK-MEL-5 melanoma = test system: SK-MEL-5 melanoma
SK-OV-3 ovarian = test system: SK-OV-3 ovarian
SN12C renal = test system: SN12C renal
SN12K1 renal = test system: SN12K1 renal
SNB-19 CNS = test system: SNB-19 CNS
SNB-75 CNS = test system: SNB-75 CNS
SNB-78 CNS = test system: SNB-78 CNS
SW-620 colon = test system: SW-620 colon
U251 CNS = test system: U251 CNS
UACC-257 melanoma = test system: UACC-257 melanoma
UACC-62 melanoma = test system: UACC-62 melanoma
UO-31 renal = test system: UO-31 renal
XF 498 CNS = test system: XF 498 CNS

Measured: TGI

CC(C(=O)O)c1cnn(-c2ccccc2)c1-n1cccc1 (stereo unspecified)
> 100 µM: all assays above
